In brackets after ≈: the same amount, converted by molar mass. Where two headings read alike, the source gives them in different places. Values belong to the compound of their own block, whether it stands above or below them.
Key:
[1] = Loading (uptake) of drugs into Pluronic-PAA microgels; type: physicochemical; settings: 1 wt % microgel suspension pH 7.0
Protocol: The beads were used in order to enhance the area of contact between the microgel suspension and drug. The beads were separated into several fractions. One fraction was added to a polypropylene vial containing the microgel suspension (0.5 mL) and the vial was gently shaken in a horizontal position in an environmental chamber at 20 or 37° C. Then the beads were recovered from the suspension by using a magnet. The beads were dried under vacuum and placed into an appropriate solvent (0.5 mL), where the solute was extracted after shaking overnight. The solvent fraction was assayed for the solute concentration using HPLC. The control fraction of loaded beads was subjected to the extraction without equilibration with the microgel suspension. The solute concentrations were measured in triplicate using the HPLC system described above. […] The peak area was integrated and used to calculate camptothecin concentration using standard calibration curves.

[2] = cited from earlier work
[3] = for Relative Peak Area: 37° C.
[4] = Solubility of camptothecin in formulations with Pluronic P85; type: physicochemical; settings: aqueous with cosolvent or surfactant or cyclodextrin, thermodynamic from solid, read-out: Camptothecin concentration (solubility)
Protocol: Calibration. Fluorescence of 0.300 mL samples of camptothecin solutions in methanol containing between 0.00003 and 0.0005 mg/mL, in triplicates on Helma Quarz plate, was measured using Bio-Tek FL600 fluorescence plate reader with excitation filter wavelength/bandwidth 360/40 nm and emission filter 530/25 nm, sensitivity 70. The average fluorescence was fitted to a linear equation and gave: […]
where C—camptothecin concentration [mg/mL].
Solubility. 0.1 mg camptothecin samples, in triplicates, and 1 mL of the respective buffer or carrier solution, were incubated at room temperature with shaking for 1 hour. The samples were then filtered through Acrodisc CR, PTFE Syringe filter, 4 mm diameter, 0.45 μm pore size Gelman part No. 4472. The filtrate was diluted 100 times with methanol, and the final concentration of camptothecin was determined by fluorescence measurement using the above-described calibration.

[5] = target: human serum albumin (HSA) (Homo sapiens, UniProt P02768); settings: pH 7.4; cited from earlier work
human serum albumin (HSA), sequence (P02768 25-609): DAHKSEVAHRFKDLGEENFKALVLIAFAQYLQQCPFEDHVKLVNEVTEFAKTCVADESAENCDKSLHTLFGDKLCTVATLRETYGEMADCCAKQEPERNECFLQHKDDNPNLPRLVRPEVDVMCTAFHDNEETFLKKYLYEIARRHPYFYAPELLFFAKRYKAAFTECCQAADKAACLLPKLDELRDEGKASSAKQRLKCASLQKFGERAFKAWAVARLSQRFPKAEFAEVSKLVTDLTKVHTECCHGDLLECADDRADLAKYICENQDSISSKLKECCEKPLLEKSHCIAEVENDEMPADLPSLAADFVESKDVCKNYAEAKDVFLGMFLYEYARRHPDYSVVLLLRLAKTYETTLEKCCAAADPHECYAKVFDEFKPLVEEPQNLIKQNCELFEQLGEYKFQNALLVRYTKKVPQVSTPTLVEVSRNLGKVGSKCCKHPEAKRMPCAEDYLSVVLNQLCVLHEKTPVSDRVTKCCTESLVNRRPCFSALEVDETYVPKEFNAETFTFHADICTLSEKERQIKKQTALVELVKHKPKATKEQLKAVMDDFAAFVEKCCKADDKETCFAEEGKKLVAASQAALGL

[6] = CPT-11 in human serum Without Gel, exposure 10 min
[7] = CPT-11 loaded in Pluronic-PAA-EGDMA gel (F127-PAA) in human serum, exposure 1 h

Uptake ± S.D. ([1]; F127-based gel, 20° C.): 2.27 ± 0.90 (20° C.) μmol/g gel
Uptake ± S.D. ([1]; F127-based gel, 37° C.): 6.97 ± 0.87 (37° C.) μmol/g gel
Uptake ± S.D. ([1]; L92-based gel, 20° C.): 3.65 ± 0.43 (20° C.) μmol/g gel
Uptake ± S.D. ([1]; L92-based gel, 37° C.): 7.25 ± 0.74 (37° C.) μmol/g gel
Compound: CC(=O)O[C@H]1C(=O)[C@@]2(C)[C@H]([C@H](OC(=O)c3ccccc3)[C@]3(O)C[C@H](OC(=O)[C@H](O)[C@@H](NC(=O)c4ccccc4)c4ccccc4)C(C)=C1C3(C)C)[C@]1(OC(C)=O)CO[C@@H]1C[C@@H]2O [Taxol]

Compound: C[C@]12CC[C@@H]3c4ccc(O)cc4CC[C@H]3[C@@H]1CC[C@@H]2O [β-Estradiol]
Log P [2]: 3.86

Compound: CCc1c2c(nc3ccc(OC(=O)N4CCC(NCCCCC(=O)O)CC4)cc13)-c1cc3c(c(=O)n1C2)COC(=O)[C@]3(O)CC [APC-L]
Relative Peak Area [3, 6]: 0.778
Relative Peak Area [3, 7]: not detected

Compound: CC[C@@]1(O)C(=O)OCc2c1cc1n(c2=O)Cc2cc3ccccc3nc2-1 [Camptothecin]
solubility at 1 h ([4]; 1% Pluronic P85 in PBS, P85 1% in PBS pH 7.2, room temperature): 3.1 ± 1.5 µg/mL (≈ 8.9 µM)
solubility at 1 h ([4]; 3% Pluronic P85 in PBS, P85 3% in PBS pH 7.2, room temperature): 4.9 ± 1.5 µg/mL (≈ 14.1 µM)
Uptake ± S.D. ([1]; F127-based gel, 20° C.): 13.4 ± 1.54 (20° C.) μmol/g gel
Uptake ± S.D. ([1]; F127-based gel, 37° C.): 16.3 ± 1.86 (37° C.) μmol/g gel
Uptake ± S.D. ([1]; L92-based gel, 20° C.): 16.2 ± 1.87 (20° C.) μmol/g gel
Uptake ± S.D. ([1]; L92-based gel, 37° C.): 19.5 ± 2.33 (37° C.) μmol/g gel
Log P [2]: 0.87
higher affinity of HSA for the carboxylate form than for the alpha-hydroxy lactone form [5]: 150 fold

Compound: CCc1c2c(nc3ccc(O)cc13)-c1cc(C(O)(CC)C(=O)O)c(CO)c(=O)n1C2 (centres unmarked) [SN28-c]
Relative Peak Area [3, 6]: 1.18
Relative Peak Area [3, 7]: not detected

Relative Peak Area [3, 6]: 1.30
Relative Peak Area [3, 7]: not detected
Compound: CCc1c2c(nc3ccc(O)cc13)-c1cc3c(c(=O)n1C2)COC(=O)[C@]3(O)CC [SN28-L]

Compound: CCc1c2c(nc3ccc(OC(=O)N4CCC(N5CCCCC5)CC4)cc13)-c1cc3c(c(=O)n1C2)COC(=O)[C@]3(O)CC [CPT-11, irinotecan]
metabolism in human serum without encapsulation into gels ([3]; male, human, 15 min, 0.013 mg/mL): a substantial portion of CPT-11 was metabolised

From patent US20040258754A1, “Compositions for oral administration of camptothecin and its analogs” (priority 2003, published 2004)
